Like-named read-outs stand apart in the source and are kept apart here.
How the values were obtained:
PAMPA-BBB assay = format: in vitro ADME; conditions: PAMPA-BBB, mean ± SEM of eight independent experiments
Excerpt: Good blood–brain barrier (BBB) permeability is the key to exerting drug efficacy in the treatment of central nervous system diseases. To evaluate whether the target compound could penetrate BBB, a parallel artificial membrane permeability assay (PAMPA) was used to predict[32]^,[33]. […] Therefore, due to its potential ability to cross the BBB, compound 17d was selected for subsequent assay.
PAMPA was used to predict the BBB permeability of the screened compound. The detailed process has been mentioned in our early work[32]^,[33].

[1] = iron (III) affinity constants and pFe3+ by spectrophotometric titration; format: physicochemical
MAO-B = molecular target: T1, MAO-B (Homo sapiens, UniProt P27338); test: hMAO-B inhibition assay; format: biochemical
T1 construct: purchased Sigma-Aldrich
T1 sequence (P27338 1-520): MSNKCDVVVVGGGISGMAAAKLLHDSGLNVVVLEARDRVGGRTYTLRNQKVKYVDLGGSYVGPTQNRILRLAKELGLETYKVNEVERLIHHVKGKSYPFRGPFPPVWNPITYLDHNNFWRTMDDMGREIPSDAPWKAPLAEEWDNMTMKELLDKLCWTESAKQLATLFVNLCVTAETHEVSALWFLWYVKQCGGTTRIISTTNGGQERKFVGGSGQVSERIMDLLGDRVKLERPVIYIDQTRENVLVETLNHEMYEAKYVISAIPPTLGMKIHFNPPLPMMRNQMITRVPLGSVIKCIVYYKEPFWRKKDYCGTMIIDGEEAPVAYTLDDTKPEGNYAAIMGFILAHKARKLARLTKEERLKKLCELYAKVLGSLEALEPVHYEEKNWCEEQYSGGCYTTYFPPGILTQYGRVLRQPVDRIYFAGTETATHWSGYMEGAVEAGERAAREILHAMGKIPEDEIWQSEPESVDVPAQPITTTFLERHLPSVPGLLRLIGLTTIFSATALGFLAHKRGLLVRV
Method: (§1) The reagents and enzymes (Human MAO-B and Human MAO-A) applied in this experiment were purchased from Sigma-Aldrich. According to the manuals, all components (substrate solution and enzyme solution) are diluted and placed aside for use. The detailed process has been mentioned in our early work[34].

[2] = pKa determination by automated spectrophotometric titration; format: physicochemical; conditions: 0.1 M KCl solution
Human MAO-A = molecular target: T2, Human MAO-A (Homo sapiens, UniProt P21397); test: hMAO-A inhibition assay; format: biochemical
T2 construct: purchased Sigma-Aldrich
T2 sequence (P21397 1-527): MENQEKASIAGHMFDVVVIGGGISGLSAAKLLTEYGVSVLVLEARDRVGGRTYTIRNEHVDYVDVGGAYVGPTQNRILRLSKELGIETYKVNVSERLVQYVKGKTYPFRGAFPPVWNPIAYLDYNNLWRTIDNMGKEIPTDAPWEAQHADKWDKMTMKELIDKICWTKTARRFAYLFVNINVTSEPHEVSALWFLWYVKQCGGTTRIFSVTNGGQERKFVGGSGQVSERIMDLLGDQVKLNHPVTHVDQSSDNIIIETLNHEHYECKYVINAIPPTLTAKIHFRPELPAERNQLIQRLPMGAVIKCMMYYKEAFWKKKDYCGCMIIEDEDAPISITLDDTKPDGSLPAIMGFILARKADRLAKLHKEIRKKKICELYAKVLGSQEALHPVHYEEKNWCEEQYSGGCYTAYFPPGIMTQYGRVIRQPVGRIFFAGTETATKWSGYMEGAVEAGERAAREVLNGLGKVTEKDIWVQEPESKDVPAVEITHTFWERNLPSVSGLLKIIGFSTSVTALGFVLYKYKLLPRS
Method: Further, the inhibitory activity of compounds against hMAO-A isoform was tested and calculated as a selectivity index [Selectivity index (SI): IC50 (hMAO-A)/IC50 (hMAO-B)].
as §1

[3] = DMSO: KCl (0.1 M) = 1:1.5 (v/v)

Pe ± SEM (PAMPA-BBB assay): 1.22 ± 0.22 *10^−6 cm/s | Papp (PAMPA-BBB assay; read-out: Pe ± SEM): 1.22 ± 0.22 ×10⁻⁶ cm/s | Log β1 [1, 3]: 13.46 | Log β2 [1, 3]: 25.19 | Log β3 [1, 3]: 35.28 | pFe^3+ ([1]; calculated from Log β values obtained in DMSO: KCl (0.1 M) = 1:1.5 (v/v)): 18.62 | IC50 (MAO-B): 67.3 ± 1.9 nM | SI: hMAO-B selectivity index = IC50 (hMAO-A)/IC50 (hMAO-B) (MAO-B): 30.7 | inhibition at 0.1 µM (MAO-B; hMAO-B, 100 nM, read-out: Inhibitory rate (%, 100 nM)): 53.1 ± 1.6% | pKa ([2]; read-out: pKa1): 2.81 | pKa ([2]; read-out: pKa2): 9.8 | melting point: 248 to 250 °C | IC50 (Human MAO-A): 2060 ± 35.4 nM
SMILES: Cc1c(O)c(=O)ccn1CCNCc1coc2ccccc2c1=O [Compound 17a, 3-Hydroxy-2-methyl-1–(2-(((4-oxo-4H-chromen-3-yl)methyl)amino)ethyl)pyridin-4(1H)-one]

— paper PMC9762789, “Chromone-based monoamine oxidase B inhibitor with potential iron-chelating activity for the treatment of Alzheimer’s disease” (Journal of Enzyme Inhibition and Medicinal Chemistry, 2022)
